Test results: ChEMBL document CHEMBL4393696, “5-Arylisothiazol-3(2H)-one-1,(1)-(di)oxides: A new class of selective tumor-associated carbonic anhydrases (hCA IX and XII) inhibitors” (Eur J Med Chem, 2019)

target: Carbonic anhydrase 1 (Homo sapiens, UniProt P00915); test: Inhibition of human carbonic anhydrase 1 assessed as inhibitory constant preincubated for 15 mins by stopped-flow CO2 hydration assay
Sequence (P00915 whole entry): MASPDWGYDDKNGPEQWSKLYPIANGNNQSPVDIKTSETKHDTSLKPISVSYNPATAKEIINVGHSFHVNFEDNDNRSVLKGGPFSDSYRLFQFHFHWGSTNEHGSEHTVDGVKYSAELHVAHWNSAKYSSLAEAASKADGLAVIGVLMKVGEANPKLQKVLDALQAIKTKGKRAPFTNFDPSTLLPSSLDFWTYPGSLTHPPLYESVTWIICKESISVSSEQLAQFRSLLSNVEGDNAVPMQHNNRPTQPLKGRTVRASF

Row | Ki | SMILES
1 | > 10000 nM | O=c1cc(-c2ccccc2)[s+]([O-])[nH]1 (stereo not drawn)
2 | > 10000 nM | CC(C)(C)n1c(=O)cc(-c2ccccc2)[s+]1[O-] (stereo not drawn)
3 | > 10000 nM | O=c1cc(-c2cn(S(=O)(=O)c3ccccc3)c3ccccc23)[s+]([O-])[nH]1 (stereo not drawn)
4 | > 10000 nM | O=C1C=C(c2ccccc2)S(=O)(=O)N1
5 | > 10000 nM | CC(C)(C)N1C(=O)C=C(c2cn(S(=O)(=O)c3ccccc3)c3ccccc23)S1(=O)=O
6 | > 10000 nM | CC(C)(C)n1c(=O)cc(-c2cc3ccccc3n2S(=O)(=O)c2ccccc2)[s+]1[O-] (stereo not drawn)
7 | > 10000 nM | CC(C)(C)N1C(=O)C=C(c2cccs2)S1(=O)=O
8 | > 10000 nM | COc1cc(-c2cc(=O)n(C(C)(C)C)[s+]2[O-])cc(OC)c1OC (stereo not drawn)
9 | 454 nM | CC(C)(C)n1c(=O)cc(Cl)[s+]1[O-] (stereo not drawn)

Continued, molecule first:

Row | SMILES | Ki
10 | CC(C)(C)N1C(=O)C=C(c2ccccc2)S1(=O)=O | > 10000 nM
11 | CC(C)(C)N1C(=O)C=C(c2cc3ccccc3n2S(=O)(=O)c2ccccc2)S1(=O)=O | > 10000 nM
12 | CC(C)(C)OC(=O)n1c(-c2cc(=O)n(C(C)(C)C)[s+]2[O-])cc2ccccc21 (stereo not drawn) | > 10000 nM
13 | CC(C)(C)n1c(=O)cc(-c2cn(S(=O)(=O)c3ccccc3)c3ccccc23)[s+]1[O-] (stereo not drawn) | > 10000 nM
14 | CC(C)(C)n1c(=O)cc(-c2cccs2)[s+]1[O-] (stereo not drawn) | > 10000 nM

target: Carbonic anhydrase 2 (Homo sapiens, UniProt P00918); test: Inhibition of human carbonic anhydrase 2 assessed as inhibitory constant preincubated for 15 mins by stopped-flow CO2 hydration assay

Row | Ki | SMILES
15 | > 10000 nM | O=c1cc(-c2ccccc2)[s+]([O-])[nH]1 (stereo not drawn)
16 | > 10000 nM | CC(C)(C)n1c(=O)cc(-c2ccccc2)[s+]1[O-] (stereo not drawn)
17 | > 10000 nM | O=c1cc(-c2cn(S(=O)(=O)c3ccccc3)c3ccccc23)[s+]([O-])[nH]1 (stereo not drawn)
18 | > 10000 nM | O=C1C=C(c2ccccc2)S(=O)(=O)N1
19 | 81.8 nM | CC(C)(C)N1C(=O)C=C(c2cn(S(=O)(=O)c3ccccc3)c3ccccc23)S1(=O)=O
20 | > 10000 nM | CC(C)(C)n1c(=O)cc(-c2cc3ccccc3s2)[s+]1[O-] (stereo not drawn)
21 | > 10000 nM | CC(C)(C)n1c(=O)cc(-c2cc3ccccc3n2S(=O)(=O)c2ccccc2)[s+]1[O-] (stereo not drawn)
22 | > 10000 nM | CC(C)(C)N1C(=O)C=C(c2cccs2)S1(=O)=O
23 | > 10000 nM | COc1cc(-c2cc(=O)n(C(C)(C)C)[s+]2[O-])cc(OC)c1OC (stereo not drawn)
24 | > 10000 nM | CC(C)(C)n1c(=O)cc(Cl)[s+]1[O-] (stereo not drawn)

Continued, molecule first:

Row | SMILES | Ki
25 | CC(C)(C)N1C(=O)C=C(c2ccccc2)S1(=O)=O | 1570 nM
26 | CC(C)(C)N1C(=O)C=C(c2cc3ccccc3n2S(=O)(=O)c2ccccc2)S1(=O)=O | > 10000 nM
27 | CC(C)(C)OC(=O)n1c(-c2cc(=O)n(C(C)(C)C)[s+]2[O-])cc2ccccc21 (stereo not drawn) | > 10000 nM
28 | CC(C)(C)N1C(=O)C=C(Cl)S1(=O)=O | > 10000 nM
29 | CC(C)(C)n1c(=O)cc(-c2cn(S(=O)(=O)c3ccccc3)c3ccccc23)[s+]1[O-] (stereo not drawn) | 2110 nM
30 | CC(C)(C)n1sc(Cl)cc1=O | > 10000 nM
31 | CC(C)(C)n1c(=O)cc(-c2ccc3ccccc3c2)[s+]1[O-] (stereo not drawn) | > 10000 nM
32 | CC(C)(C)n1c(=O)cc(-c2cccs2)[s+]1[O-] (stereo not drawn) | > 10000 nM
33 | CC(C)(C)n1c(=O)cc(-c2cc3ccccc3o2)[s+]1[O-] (stereo not drawn) | > 10000 nM

target: Carbonic anhydrase 9 (Homo sapiens, UniProt Q16790); test: Inhibition of human carbonic anhydrase 9 assessed as inhibitory constant preincubated for 15 mins by stopped-flow CO2 hydration assay

Row | Ki | SMILES
34 | 45.5 nM | O=c1cc(-c2ccccc2)[s+]([O-])[nH]1 (stereo not drawn)
35 | 4.5 nM | CC(C)(C)n1c(=O)cc(-c2ccccc2)[s+]1[O-] (stereo not drawn)
36 | 101 nM | O=c1cc(-c2cn(S(=O)(=O)c3ccccc3)c3ccccc23)[s+]([O-])[nH]1 (stereo not drawn)
37 | 40.3 nM | O=C1C=C(c2ccccc2)S(=O)(=O)N1
38 | 4.3 nM | CC(C)(C)N1C(=O)C=C(c2cn(S(=O)(=O)c3ccccc3)c3ccccc23)S1(=O)=O
39 | 133 nM | CC(C)(C)n1c(=O)cc(-c2cc3ccccc3s2)[s+]1[O-] (stereo not drawn)
40 | 40.3 nM | CC(C)(C)n1c(=O)cc(-c2cc3ccccc3n2S(=O)(=O)c2ccccc2)[s+]1[O-] (stereo not drawn)
41 | 221 nM | CC(C)(C)N1C(=O)C=C(c2cccs2)S1(=O)=O
42 | 237 nM | COc1cc(-c2cc(=O)n(C(C)(C)C)[s+]2[O-])cc(OC)c1OC (stereo not drawn)
43 | 171 nM | CC(C)(C)n1c(=O)cc(Cl)[s+]1[O-] (stereo not drawn)

The remaining lines, values behind:

Row | SMILES | Ki
44 | CC(C)(C)N1C(=O)C=C(c2ccccc2)S1(=O)=O | 28.4 nM
45 | CC(C)(C)N1C(=O)C=C(c2cc3ccccc3n2S(=O)(=O)c2ccccc2)S1(=O)=O | 347 nM
46 | CC(C)(C)OC(=O)n1c(-c2cc(=O)n(C(C)(C)C)[s+]2[O-])cc2ccccc21 (stereo not drawn) | 47.7 nM
47 | CC(C)(C)N1C(=O)C=C(Cl)S1(=O)=O | 227 nM
48 | CC(C)(C)n1c(=O)cc(-c2cn(S(=O)(=O)c3ccccc3)c3ccccc23)[s+]1[O-] (stereo not drawn) | 8.8 nM
49 | CC(C)(C)n1sc(Cl)cc1=O | 98.5 nM
50 | CC(C)(C)n1c(=O)cc(-c2ccc3ccccc3c2)[s+]1[O-] (stereo not drawn) | 16 nM
51 | CC(C)(C)n1c(=O)cc(-c2cccs2)[s+]1[O-] (stereo not drawn) | 48.6 nM
52 | CC(C)(C)n1c(=O)cc(-c2cc3ccccc3o2)[s+]1[O-] (stereo not drawn) | 251 nM

target: Carbonic anhydrase 12 (Homo sapiens, UniProt O43570); test: Inhibition of human carbonic anhydrase 12 assessed as inhibitory constant preincubated for 15 mins by stopped-flow CO2 hydration assay
Sequence (O43570 whole entry): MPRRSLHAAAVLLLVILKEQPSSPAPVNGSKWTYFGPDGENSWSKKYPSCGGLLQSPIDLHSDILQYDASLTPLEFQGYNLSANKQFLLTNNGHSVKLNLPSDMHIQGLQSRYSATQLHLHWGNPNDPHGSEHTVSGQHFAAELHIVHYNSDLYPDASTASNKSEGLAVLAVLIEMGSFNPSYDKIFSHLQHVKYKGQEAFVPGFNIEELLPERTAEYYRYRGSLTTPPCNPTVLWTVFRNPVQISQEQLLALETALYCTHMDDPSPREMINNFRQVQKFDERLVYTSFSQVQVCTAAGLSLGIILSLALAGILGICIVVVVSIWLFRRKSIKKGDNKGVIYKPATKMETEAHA

Row | Ki | SMILES
53 | 53.6 nM | CC(C)(C)n1c(=O)cc(Cl)[s+]1[O-] (stereo not drawn)
